Source: patent US20220305031A1, “METHODS FOR REDUCING TUMOR PROGRESSION AND FIBROSIS AND INCREASING ADAPTIVE IMMUNITY IN MALIGNANCIES” (GEORGETOWN UNIVERSITY, priority 2019, published 2022)

How the values were obtained:
Type in all cases: in vivo
[1] = test system: tumors from NeuT/ATTAC mice; assay: FLIM and SHG microscopy of tumor sections; settings: DMHCA-treated tumor vs control tumor
Text: SHG imaging using a multiphoton microscope equipped with a Deep Imaging Via Emission Recovery (DIVER) detector (Crosignani et al., “Deep Tissue Fluorescence Imaging and in Vivo Biological Applications,” J. Biomed. Opt. 17(11):116023 (2012), which is hereby incorporated by reference in its entirety) can distinguish collagen accumulation in the early stages of fibrosis unlike standard histological analysis (Dvornikov & Gratton, “Imaging in Turbid Media: A Transmission Detector Gives 2-3 Order of Magnitude Enhanced Sensitivity Compared to Epi-Detection Schemes,” Biomed. Opt. Express 7:3747-755 (2016); Ranjit et al., “Label-Free Fluorescence Lifetime and Second Harmonic Generation Imaging Microscopy Improves Quantification of Experimental Renal Fibrosis,” Kidney Int. 90:1123-1128 (2016), each of which is hereby incorporated by reference in its entirety). DIVER, by virtue of detection in the direction of light propagation is especially suitable for SHG detection and a combination of SHG and FLIM enables spatial mapping of collagen I and III, which is important for fibrosis. Additionally, this type of imaging is applicable to unstained tissues, which eliminates the uncertainty from issues associated with labeling efficiency. Moreover, the same tissue can be used for other purposes after imaging is complete. […]

NeuT/ATTAC mice [2] = assay: Tumor development and multiplicity in AP-treated NeuT/ATTAC mice on DMHCA diet; settings: diet with 0.05% DMHCA (~100 mg/kg/day)
Text: The derivation and characteristics of MMTV-PPARd mice was reported in Yuan et al., “PPARdelta Induces Estrogen Receptor-Positive Mammary Neoplasia Through an Inflammatory and Metabolic Phenotype Linked to mTOR Activation,” Cancer Res. 73(14):4349-4361 (2013), which is hereby incorporated by reference in its entirety. […] FAT-ATTAC mice on a C57BL/6 background (Pajvani et al., “Fat Apoptosis Through Targeted Activation of Caspase 8: A New Mouse Model of Inducible and Reversible Lipoatrophy,” Nat. Med. 11(7):797-803 (2005); Landskroner-Eiger et al., “Morphogenesis of the Developing Mammary Gland. Stage-Dependent Impact of Adipocytes,” Dev. Biol. 344(2):968-978 (2010), each of which is hereby incorporated by reference in its entirety) were crossed into the FVB strain for several generations. Derivation of NeuT/ATTAC mice was reported in Yuan et al., “MMTV-NeuT/ATTAC Mice: A New Model for Studying the Stromal Tumor Microenvironment,” Oncotarget. 9(8):8042-8053 (2018), which is hereby incorporated by reference in its entirety. All animals were fed LabDiet 5303 and monitored for the NeuT, PPARd, and/or FKBPv-caspase 8 transgenes by genotyping.
(§1) Fibrosis was induced in mice at 6 w.o.a. by weekly i.p. injections of 0.4 mg/kg AP dissolved in vehicle (4% ethanol, 10% PEG-400, and 1.75% Tween-20 in water). Mice were maintained on LabDiet 5053 chow supplemented with 0.05% DMHCA (100 mg/kg) beginning at 8 w.o.a. Control mice received the standard diet.
Statistical significance was evaluated using the Mantel-Cox log-rank test for survival analysis and Prism GraphPad software or the two-tailed Student's t test to evaluate differences between means at a significance of P<0.05.
A study was designed to evaluate whether DMHCA treatment could abrogate tumor development in NeuT/ATTAC mice treated with AP.

[3] = test system: tumors from NeuT/ATTAC mice; assay: Immunohistochemistry of FFPE tumor sections
Procedure: as §1
Mammary tissue was excised and FFPE sections were prepared (Yuan et al., “MMTV-NeuT/ATTAC Mice: A New Model for Studying the Stromal Tumor Microenvironment,” Oncotarget. 9(8):8042-53 (2018); Yuan et al., “PPARdelta Induces Estrogen Receptor-Positive Mammary Neoplasia Through an Inflammatory and Metabolic Phenotype linked to mTOR Activation,” Cancer Res. 73(14):4349-4361 (2013); Yin et al., “Peroxisome Proliferator-Activated Receptor Delta and Gamma Agonists Differentially Alter Tumor Differentiation and Progression During Mammary Carcinogenesis,” Cancer Res. 65:3950-3957 (2005); Yin et al., “Inhibition of Peroxisome Proliferator-Activated Receptor Gamma Increases Estrogen Receptor-Dependent Tumor Specification,” Cancer Res. 69(2):687-694 (2009), each of which is hereby incorporated by reference in its entirety). Primary antibodies: PD-L1 (1:200, 17952-1-AP, Proteintech), SMA (1:100, sc130617, Santa Cruz), Ki67 (1:50, CRM325, Biocare), CD31 (1:100, ab56299, Abcam), CXCL1 (1:120, sc-1374, Santa Cruz), F4/80 (1:30, 14-4801-85, eBioscience), Foxp3 (1:50, 14-5773-82, e Bioscience), CD8a (1:40, 14-0808-82, eBioscience). Collagen was stained with Picrosirius Red stain (Yuan et al., “MMTV-NeuT/ATTAC Mice: A New Model for Studying the Stromal Tumor Microenvironment,” Oncotarget. 9(8):8042-53 (2018), which is hereby incorporated by reference in its entirety).

NeuT/ATTAC mice [4] = assay: FACS analysis of immune cell subsets in tumor infiltrates and spleen
Procedure: as §1
To assess whether DMHCA treatment could reduce immune tolerance in NeuT/ATTAC mice, a model that is highly resistant to PD-1 immunotherapy, spleen and tumor immune infiltrates were analyzed by FACS (FIGS. 6A-6C).

[5] = NeuT/ATTAC mice, DMHCA from two months of age

SMILES: C[C@H](CCC(=O)N(C)C)[C@H]1CC[C@H]2[C@@H]3CC=C4C[C@@H](O)CC[C@]4(C)[C@H]3CC[C@]12C [DMHCA, dimethyl-3-beta-hydroxy-cholenamide]
- collagen I & collagen III detected by FLIM ([1]; FIG. 8C-8D): little collagen
- collagen I by SHG microscopy ([1]; FIG. 8E-8G): markedly reduced
- tumor development (NeuT/ATTAC mice [2]; NeuT/ATTAC mice treated with AP, FIG. 5A): reduction in tumor development
- decrease in tumor multiplicity (NeuT/ATTAC mice [2]; NeuT/ATTAC mice treated with AP, FIG. 5B): 10 fold
- toxicity of dietary dose (NeuT/ATTAC mice [2]): nontoxic
- CXCL1 expression ([3]; IHC of tumors, FIG. 7): reduced CXCL1 expression
- fibroblast activation protein expression [3, 5]: reduced
- smooth muscle actin expression [3, 5]: reduced
- PD1+/Foxp3+ CD4+ T cells (NeuT/ATTAC mice [4]; [5]): increase
- CD4+ effector T cells (NeuT/ATTAC mice [4]; spleen, vs control): enhanced
- CD8+ effector T cells (NeuT/ATTAC mice [4]; spleen, vs control): enhanced
- G-MDSC (NeuT/ATTAC mice [4]; spleen, vs control): reduced
- Treg cells (NeuT/ATTAC mice [4]; spleen, vs control): markedly reduced
- CD4+ effector T cells (NeuT/ATTAC mice [4]; tumor infiltrates, vs control): increased
- CD8+ effector T cells (NeuT/ATTAC mice [4]; tumor infiltrates, vs control): increased
- G-MDSC (NeuT/ATTAC mice [4]; tumor infiltrates, vs control): reduced
- M-MDSC (NeuT/ATTAC mice [4]; tumor infiltrates, vs control): reduced
- Treg (NeuT/ATTAC mice [4]; tumor infiltrates, vs control): reduced
